Results on ten compounds are retold here after paper PMC5321741, “Arylmethylamino steroids as antiparasitic agents” (Nature Communications, 2017).

Series [1] has as its system P. falciparum (strain 3D7). Kind of series: 72 h 3H-hypoxanthine incorporation assay, asexual blood stages. In kind it is cell-based, Plasmodium falciparum. As to conditions: Plasmodium falciparum.
The test system of the next series is HUVEC. Kind of series: antiproliferative activity on HUVEC cells. In kind it is cell-based. Particulars: Homo sapiens, HUVEC, 72 h. The procedure:
(§1) Compounds were tested for their antiproliferative activity on HUVEC and K-562 cells and for cytotoxicity on HeLa cells using standard protocols. K-562 (DSM ACC 10), HUVEC (ATCC CRL-1730), and HeLa (DSM ACC 57) cells were cultured as described previously. To assay the antiproliferative and cytotoxic effect, procedures were carried out as described before. In brief, for each experiment with K-562 and HeLa ∼10,000 cells were seeded per well of the 96-well microplates. For the cytotoxicity assay, the HeLa cells were preincubated for 48 h without the test substances. Cells were incubated for 72 h at 37 °C in a humidified atmosphere and 5% CO2. Suspension cultures of K-562 in microplates were analysed by an electronic cell analyzer system CASY 1 (SCHÄRFE, Reutlingen, Germany). The monolayer of the HUVEC and HeLa cells were fixed by glutaraldehyde (MERCK) and stained with a 0.05% solution of methylene blue (SERVA). After gently washing, the stain was eluted by 0.2 ml of 0.33 N HCl in the wells. The optical densities were measured at 660 nm in a microplate reader. The calculations of the different values of GI50 and CC50 were performed with the software Magellan (TECAN).

The next series relates to K-562. The experiment in a line: antiproliferative activity on K-562 cells. In kind it is cell-based. As to conditions: Homo sapiens, K562, 72 h. The procedure:
as §1

A short description of series [2]: cytotoxicity on HeLa cells. Format: cell-based. Particulars: human, HeLa cells. As to the method:
as §1

Series [3] concerns P. berghei GFP ANKA malaria strain. The experiment in a line: P. berghei mouse model (Peter's test). As to conditions: for % activity (reduction of parasitaemia) / % of control / Parasitized RBC over 100, Average / Parasitized RBC over 100, individual mice M1-M3: day 4. In kind it is in vivo, Plasmodium berghei in NMRI mice. The procedure: The animal experiments described here were performed at the Swiss Tropical and Public Health Institute (Swiss TPH, Basel, Switzerland), they were approved by the Swiss Cantonal Authorities (‘Kantonales Veterinäramt Basel Stadt') adhering to local and national regulations of laboratory animal welfare in Switzerland. The best compounds were tested in the murine P. berghei model essentially as described. The infection was initiated at day 0 with the P. berghei GFP ANKA malaria strain (donation from AP Waters and CJ Janse, Leiden University). From donor mice (female NMRI mice, 18–20 grams (about 3 weeks) from Charles River Germany) with ∼30% parasitaemia, heparinized blood was taken and diluted in physiological saline to 10^8 parasitized erythrocytes/ml. An aliquot (0.2 ml) of this suspension was injected intravenously into experimental and control groups of mice (female NMRI mice, 18–20 grams (about 3 weeks) from Charles River Germany). Usually, in untreated control mice parasitaemia rose regularly to ∼30% by day 3 post-infection. Control mice died between days 6 and 7 post infection. In the experiments described here, however, control animals (n=5) were killed on day 4 post infection for ethical reasons.
The steroid compounds were prepared at an appropriate concentration as a solution/suspension in Tween 80/alcohol (7:3, Tween 80 and absolute ethanol, respectively), followed by a 10x dilution in water. […] The route of administration was i.p., p.o., s.c. in a volume of 10 ml kg^−1.
The degree of infection (parasitaemia expressed in % of infected erythrocytes) was determined by FACS analysis on day 4 (96 h post infection). The difference of the mean infection rate of the control group (=100%) to the test group was calculated and expressed as a percent reduction. For example, activity determination with a mean of 2% parasitaemia in treated mice and a mean of 40% parasitaemia in the control animals is calculated as follows: (40−2%)/40% × 100=95% activity. The survival time in days was recorded up to 30 days after infection. A compound was considered curative if the animal survived to day 30 after infection with no detectable parasites (confirmed by light microscopy).

Series [4] relates to adult Schistosoma mansoni. Kind of series: schistosome in vitro culture with inhibitor treatment. Format: cell-based.
Another series deals with P. falciparum NF54. The experiment in a line: IC50 speed assay. Format: cell-based, Plasmodium falciparum. Particulars: for IC50: Plasmodium falciparum, mean±s.d., three biological replicates. The procedure:
To assess the rapidity of growth inhibition induced by the steroid compounds, the so-called IC50 speed assay[16] was conducted for compound 1o on P. falciparum NF54 (Fig. 2a,b).

The test system of the next series is haem. The experiment in a line: ESI-MS collision-induced dissociation of haem adducts. As to conditions: 50 µM haem and 50 µM substrate. In kind it is binding. The procedure: Compound Molar Adduct DV50 Bottom Dissociation mass [Haem+S] (V) plateau Constant
Supplementary Table 7. ESI-MS-CID data (m/z, calculated DV50 = dissociation voltage at 50% and % bottom plateau) of the [haematin-drug]+ adducts and dissociation constants (KD, µM) of the haematin-drug complexes measured with absorption spectrophotometric titrations.
Conditions: 50 µM haem and 50 µM substrate in H2O/CH3CN (5/95) + 0.1% formic acid.
Stability responses of the haem substrate adduct were obtained via ESI-CID experiments.
Positive mode; fragmentor voltage from 20 V to 400 V with 20 V increments. […]
- 41/120 g), and complete dissolution was achieved using an ultrasonic bath. All solutions were protected from daylight to avoid any photochemical degradation. All the physiochemical measurements were carried out at 25.0(2) °C. […]
Electrospray mass spectrometric measurements stopping point
Electrospray mass spectra of the haem complexes were obtained with an Agilent Technologies 6120 quadrupole equipped with an electrospray (ESI) interface. For

[5] abbreviates: 3D7, 72 h 3H-hypoxanthine incorporation, asexual blood stages, read-out: Antiplasmodial activity IC50 Pf (3D7).
[6] abbreviates: NF54, read-out: IC50 24 h, 24 h compound incubation.
The mark [7] stands for this setting: NF54, 48 h compound incubation, read-out: IC50 48 h.
Where [8] appears, read: NF54, 72 h compound incubation, read-out: IC50 72 h.

SMILES strings stand for the structures. Where “and” joins values, the source holds several entries; their conditions need not be identical. Equal values may be shown once. Where a name gives a salt, the structure may show the parent alone. Read-outs that look alike come from different tables or passages of the source.

Usually IC50 stands for the concentration that inhibits the measured activity by half. The GI50 is the concentration giving 50% growth inhibition. A high value points to less potent growth inhibition. Broadly, the CC50 is the concentration at which the toxic effect on the cells reaches its halfway point. Low values mean greater toxicity to the cells, high ones lower toxicity to the cells. As to `COc1ccc2c(c1)CCC1C2CC[C@@]2(C)C1CC[C@H]2NCc1ccccc1O` (stereo partly shown) [1c], the IC50 in series [1] (setting [5]) was 0.0074 µM. The GI50 was found to be 17.1 µM in the series with HUVEC and 5.9 µM in the series on K-562. The 50% cytotoxic concentration (CC50) at 72 h in [2] is over 128 µM. The “Mouse survival in days, Average” value is 9 days in [3] (3x 10 mg/kg p.o.); 7 days in series [3] (3x 10 mg/kg s.c.); 13 days in series [3] (3x 30 mg/kg p.o.); 14 days in [3] (3x 30 mg/kg s.c.); 15 days in series [3] (3x 100 mg/kg p.o.). The “Mouse survival in days, individual mice M1-M3” value was 8 days and 11 days and 7 days in series [3] (3x 10 mg/kg p.o.); 7 days and 6 days and 8 days in series [3] (3x 10 mg/kg s.c.); 13 days and 12 days and 14 days in [3] (3x 30 mg/kg p.o.); 14 days in [3] (3x 30 mg/kg s.c.); 15 days and 17 days and 14 days in series [3] (3x 100 mg/kg p.o.). The “% activity (reduction of parasitaemia)” value in [3] (3x 10 mg/kg p.o.) is reported as 47%; in series [3] (3x 10 mg/kg s.c.), under 40%; in series [3] (3x 30 mg/kg p.o.), 99.4%; in [3] (3x 30 mg/kg s.c.), 62%; in series [3] (3x 100 mg/kg p.o.), 99.7%. For the same compound, the “% of control” value in series [3] (3x 10 mg/kg p.o.) worked out at 53%; in [3] (3x 10 mg/kg s.c.), 83%; in series [3] (3x 30 mg/kg p.o.), 0.65%; in [3] (3x 30 mg/kg s.c.) it was 38%; in series [3] (3x 100 mg/kg p.o.), 0.30%. In addition, the “Parasitized RBC over 100, Average” value was 36 in series [3] (3x 10 mg/kg p.o.); 56 in series [3] (3x 10 mg/kg s.c.); 0.44 in series [3] (3x 30 mg/kg p.o.); 26 in series [3] (3x 30 mg/kg s.c.); 0.20 in series [3] (3x 100 mg/kg p.o.). The “Parasitized RBC over 100, individual mice M1-M3” value was 28 and 26 and 53 in [3] (3x 10 mg/kg p.o.); 57 and 68 and 42 in series [3] (3x 10 mg/kg s.c.); 0.53 and 0.31 and 0.48 in series [3] (3x 30 mg/kg p.o.); 21 and 24 and 32 in [3] (3x 30 mg/kg s.c.); 0.23 (2×) and 0.14 in series [3] (3x 100 mg/kg p.o.). The “morphological effects (confocal laser scanning microscopy)” value in series [4] (5 μM, 6–13 days) was “Aggregate-like degradation products of the gastrodermis occurred within the gut lumen”. In addition, the entries for the “time to death of worms” value in series [4] (10 µM) and in series [4] (20 µM) were 6 days and 2 days, respectively. The “starting concentration with negative influence on worm physiology” value in series [4] (pairing stability, egg production, survival, bright-field microscopy) was determined as 1 μM.
For orientation: melting point means the temperature, or range, at which the solid turns liquid. For `Oc1ccccc1CNC1CCCCCCC1` (as salt: perchlorate) [17c], the melting point was 136 to 138.5 °C.
Compound `Oc1ccccc1CNc1ccc2ccc3cccc4ccc1c2c34` [20c] had a melting point of 160 to 163 °C. Moreover, in series [1] (3D7, non-steroid-derived analogs, read-out: IC50 on P. falciparum 3D7 asexual blood stages), the IC50 is 5.6 µM.
For `CCc1nc(N)nc(N)c1-c1ccc(Cl)cc1` [Pyrimethamine], in the series on P. falciparum NF54, the “speed of action (IC50 shift across 24, 48, 72 h)” value is listed as “slow-acting compound”. The figures for the IC50 in the series with P. falciparum NF54 (setting [6]), in the series with P. falciparum NF54 (setting [7]) and in the series on P. falciparum NF54 (setting [8]) were 0.22 ± 0.061 µM, 0.0304 ± 0.0076 µM and 0.0152 ± 0.0016 µM, respectively.
Turning to `C[C@H]1[C@H](OC(=O)CCC(=O)O)O[C@@H]2O[C@@]3(C)CC[C@H]4[C@H](C)CC[C@@H]1[C@@]24OO3` [Artesunate], the results for the IC50 in the series with P. falciparum NF54 (setting [6]), in the series on P. falciparum NF54 (setting [7]) and with P. falciparum NF54 (setting [8]) were 0.0055 ± 0.0008 µM, 0.0057 ± 0.0005 µM and 0.0047 ± 0.0003 µM, respectively.
Consider `COc1ccc2c(c1)CCC1C2CC[C@@]2(C)C1CC[C@@H]2N(CCCn1ccnc1)CCc1ccccn1` (stereo partly shown) [STS 948], for which the IC50 in series [1] (setting [5]) amounted to 0.675 µM. The GI50 in the series with HUVEC was 7.2 µM; in the series with K-562, 6.6 µM. This compound came in with a CC50 at 72 h in series [2] of 18.3 µM. Further, the “DV50 (dissociation voltage at 50%) of haem adduct” value in the series on haem (ESI-CID, 20 V to 400 V) amounted to 367 V. Besides, the “Bottom plateau (adduct remaining at 400 V)” value with haem (fragmentor voltage 400 V) was found to be 36%.
Turning to `COc1ccc2c(c1)CCC1C2CC[C@@]2(C)C1CC[C@@H]2NCc1ccccc1O` (stereo partly shown) [2c], in series [1] (setting [5]), the IC50 came out at 0.073 µM. For the same compound, the GI50 in the series with HUVEC stood at 10 µM; in the series with K-562, 5.1 µM. In series [2], this compound came in with a CC50 at 72 h of 42.9 µM. Also, the entries for the “Mouse survival in days, Average” value in [3] (3x 10 mg/kg s.c.), in series [3] (3x 30 mg/kg s.c.) and in series [3] (3x 100 mg/kg p.o.) were 10 days, 14 days and 16 days, respectively. Also, the entries for the “% activity (reduction of parasitaemia)” value in [3] (3x 10 mg/kg s.c.), in series [3] (3x 30 mg/kg s.c.) and in [3] (3x 100 mg/kg p.o.) were 47%, 87% and 99%, respectively.
Turning to `Oc1ccccc1CNC1CCCC1` (as salt: perchlorate) [15c], the melting point fell in the range of 168 to 169 °C.
Compound `Oc1ccccc1CNC1CCCCC1` (as salt: perchlorate) [16c] displayed a melting point of 152 to 153 °C.
For the compound `Oc1ccccc1CNc1ccccc1` (as salt: perchlorate) [19c], the melting point fell in the range of 183 to 186 °C.
